Our source for the IC50 values is BindingDB's records for patent US10624871 (The University of Hong Kong, 2020).

Assay [1] has as its target T1, Metallo-beta-lactamase type 2 [29-270] (Klebsiella pneumoniae, UniProt C7C422).
T1 construct: 29-270
The assay can be described thus: Enzyme Inhibition Assay. The procedure:
(§1) Freshly prepared Zn2-NDM-1 (50 nM) or Zn2-VIM-2 were first incubated with various concentrations of Bi(III) compounds for 1 h at 25° C. The assay was performed in a 1 cm quartz cuvette using the kinetic mode of Varian Cary 50 UV-visible spectrophotometer at 25° C. The final assay buffer contains 50 mM HEPES/Na pH 7.0, 100 mM NaCl and 100 μM MER. The decrease in absorbance at 300 nm due to ring-opening of MER was monitored every second for a duration of 10 mins until the reaction was completed. The initial rate were extracted and calculated from each reaction curves.

For assay [2], the target named is T2, Metallo-beta-lactamase VIM-2 [21-266] (Klebsiella pneumoniae, UniProt Q3Y6Q3).
T2 construct: 21-266
In words: Enzyme Inhibition Assay. The procedure: as §1

T1 sequence (C7C422 29-270): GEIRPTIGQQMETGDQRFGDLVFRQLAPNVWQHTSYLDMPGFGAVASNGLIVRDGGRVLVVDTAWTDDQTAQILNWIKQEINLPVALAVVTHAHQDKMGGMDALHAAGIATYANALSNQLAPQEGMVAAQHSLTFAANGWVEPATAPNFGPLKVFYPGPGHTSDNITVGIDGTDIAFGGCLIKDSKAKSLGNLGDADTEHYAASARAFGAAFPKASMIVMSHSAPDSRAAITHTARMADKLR

As to `[Bi+3]` [US10624871, Compound Bi(NO3)3], the figures for the 50% inhibitory concentration (IC50) in assay [1] and in assay [2] were 1.89 µM and 2.45 µM, respectively.

With `CC(=O)N[C@@H](CS)C(=O)O` [US10624871, Compound 21], the half-maximal inhibitory concentration (IC50) in assay [1] was determined as 17.7 µM.

Regarding `O=C(O)C[C@@](O)(CC(O)O)C(=O)O` [US10624871, Compound 10], the IC50 stood at 5.83 µM in assay [1] and 44.5 µM in assay [2].

Regarding `C[C@H](CS)C(=O)N1CCC[C@H]1C(=O)O` [US10624871, Compound 15], in assay [2], the 50% inhibitory concentration (IC50) was found to be 6.17 µM.

For orientation: IC50 means the concentration needed to halve the response being measured.
